Laboratory results reported in US20260055106A1, “PARG INHIBITORY COMPOUND” (FORX THERAPEUTICS AG, priority 2021, published 2026).
pEC50, pIC50: −log10 of the molar value. Counter-ions that a name gives are not always drawn. Like-named read-outs stand apart in the source and are kept apart here.

Assays:
[1] = tested on: MDA-MB-436; experiment: Cellular viability assay (MDA-MB-436); type: cell-based; details: Homo sapiens, 96 hours incubation, Cell Titer-Glo, read-out: EC50 determined in MDA-MB-436 cells, Cellular viability assay
Description: (§1) NCI-H460 and MDA-MB-436 as PARG-inhibition sensitive cell lines, and U2OS as PARG-inhibition insensitive cell line, were plated at 1000 cells/well, 5000 cells/well and 2000 cells/well, respectively, in 96-well white plates with clear flat bottom. After 24 hours, the compounds were added with the Tecan digital dispenser (D300e), in duplicates. The outer wells of the plate were excluded. After 96 hours of incubation, 150 μl of the growth medium were removed and 50 μl of Cell Titer-Glo (Promega) were added per well. Following an incubation of 10 minutes, luminescence was read using a plate reader (Tecan) for NCI-H460 and U2OS cell lines, and a 2104 EnVision plate reader for MDA-MB-436. Averaged values of the samples were normalized to DMSO treated control samples. Curves were fit as % of the control vs. log of the compound concentration using a 4 parameter log-logistic function: […]

[2] = Kinetic solubility assay; type: physicochemical; details: buffer, aqueous buffer, kinetic from dmso stock, pH 7.4, shake flask, room temperature, HPLC-UV
Description: The Kinetic solubility assay employs the shake flask method followed by HPLC-UV analysis. For exemplary compounds, the kinetic solubility was measured according to the following protocol: • 1. Samples were weighed and dissolved in 100% DMSO to make a stock solution of 10 mM. About 100 μL of stock solution is needed to cover this assay. • 2. Test compounds and controls (10 mM in DMSO, 10 μL/tube) were added into the buffer (490 μL/well) which were placed in a Mini-UniPrep filter. The buffer was prepared as the customer's requirement. • 3. The kinetic solubility samples were vortexed for 2 minutes. • 4. The solubility solutions were shaked in an orbital shaker for 24 hr at room temperature. • 5. 200 μL of each solubility solution were transferd into a 96-deep well for analysis when the samples were directly filtered by the syringeless filter device. • 6. The test compound concentration of the filtrate were determined using HPLC-UV. • 7. Three UV standard solutions were injected into HPLC from low to high concentrations, followed by testing of the K.S. supernatant. Testing samples were injected in duplicate.

[3] = tested on: MDA-MB-436 tumor cells; experiment: Cell-derived xenograft (CDX) study, MDA-MB-436 xenograft model; type: in vivo, Mus musculus; details: BALB/c nude mice
Description: • Species: Mus musculus • Strain: BALB/c nude • Age: 6-9 weeks • Sex: Female • Body weight: 17-20 g • Animal supplier: Beijing Vital River Laboratory Animal Technology Co., Ltd • Certificate No: 20230209Abzz0619000498
The MDA-MB-436 tumor cells (ATCC, cat #HTB-130) were maintained in vitro as a monolayer culture in L-15 medium supplemented with 10% fetal bovine serum, 10 μg/mL Insulin, 16 μg/mL glutathione and 1% Antibiotic-Antimycotic at 37° C. in an atmosphere of 0% CO2 in air. The cells growing in an exponential growth phase were harvested and counted for tumor inoculation.
BALB/c nude female mice were inoculated subcutaneously at the right flank with MDA-MB-436 tumor cells (10×10^6/mouse) in 0.2 mL of PBS with Matrigel (1:1) for tumor development. The animals were randomized and the treatment was started on day 25 after tumor inoculation when the average tumor volume reached approximately 126 mm^3. Each group consisted of 10 tumor-bearing mice. The compound of formula (I) was administrated to the mice according to the predetermined regimen as shown in the experimental design table 3
Tumor sizes were measured twice weekly in two dimensions using a caliper, and the volumes were expressed in mm^3. The tumor sizes were then used for the calculations of TGI values.
TGI was calculated for each group using the formula: TGI (%)=[1−(Ti−T0)/(Vi−V0)]×100; Ti is the average tumor volume of a treatment group on a given day, T0 is the average tumor volume of the treatment group on the first day of treatment, Vi is the average tumor volume of the vehicle control group on the same day with Ti, and V0 is the average tumor volume of the vehicle group on the first day of treatment.
A one-way ANOVA was performed to compare the tumor volume among groups.

[4] = tested on: U2OS; experiment: Cellular viability assay (U2OS); type: cell-based; details: Homo sapiens, 96 hours incubation, Cell Titer-Glo, read-out: EC50 determined in U2OS cells, Cellular viability assay
Description: as §1

[5] = molecular target: T1, PARG (Homo sapiens, UniProt Q86W56); experiment: Cellular PAR chain assay; type: cell-based; details: U2OS cells
T1 construct: endogenous in cells; host or cells: U2OS
T1 sequence (Q86W56 whole entry): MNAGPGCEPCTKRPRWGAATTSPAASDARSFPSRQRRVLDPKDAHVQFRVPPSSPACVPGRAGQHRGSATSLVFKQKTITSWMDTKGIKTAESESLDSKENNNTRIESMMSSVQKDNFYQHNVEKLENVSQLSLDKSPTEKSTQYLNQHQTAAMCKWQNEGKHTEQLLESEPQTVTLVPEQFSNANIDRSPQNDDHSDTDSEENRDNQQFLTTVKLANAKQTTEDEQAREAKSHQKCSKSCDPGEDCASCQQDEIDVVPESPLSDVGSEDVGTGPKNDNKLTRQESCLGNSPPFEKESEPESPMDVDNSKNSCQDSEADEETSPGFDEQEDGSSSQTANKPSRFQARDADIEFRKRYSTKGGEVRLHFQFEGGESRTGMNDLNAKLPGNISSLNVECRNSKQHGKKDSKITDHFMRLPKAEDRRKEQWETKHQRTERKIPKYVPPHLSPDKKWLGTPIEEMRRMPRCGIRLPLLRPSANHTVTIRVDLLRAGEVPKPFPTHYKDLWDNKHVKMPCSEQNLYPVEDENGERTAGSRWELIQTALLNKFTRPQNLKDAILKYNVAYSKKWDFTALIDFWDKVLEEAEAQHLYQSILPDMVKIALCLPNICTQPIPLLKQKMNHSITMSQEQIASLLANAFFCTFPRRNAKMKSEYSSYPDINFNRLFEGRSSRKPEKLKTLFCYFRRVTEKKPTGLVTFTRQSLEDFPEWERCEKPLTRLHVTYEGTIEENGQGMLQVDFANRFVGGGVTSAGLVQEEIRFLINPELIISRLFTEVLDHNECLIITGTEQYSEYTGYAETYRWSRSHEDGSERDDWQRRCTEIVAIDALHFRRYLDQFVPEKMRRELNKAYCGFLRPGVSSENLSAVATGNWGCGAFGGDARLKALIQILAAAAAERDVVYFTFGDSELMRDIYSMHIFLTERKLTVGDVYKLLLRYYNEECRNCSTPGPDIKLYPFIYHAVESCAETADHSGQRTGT
Description: The ability of compounds to inhibit PARG in response to DNA damage, was assessed with U2OS cells pretreated with the compounds for 1 hour, following a 1-hour treatment with or without the DNA alkylating agent temozolomide (TMZ). […] The cells were incubated for 2 hours at room temperature with a mouse monoclonal antibody against poly (ADP) ribose (PAR) polymer. The cells were washed and incubated with an anti-mouse Alexa-488 conjugated secondary antibody for 1 hour at room temperature. Propidium iodide staining was used to determine DNA content in the cells (staining at 4° C. overnight). The fluorescence intensity of the cells was assessed by flow cytometry (Cytoflex from Beckmann) and the percentage of PAR chain positive cells (gated in relation to TMZ+DMSO treated control) was determined. PAR chain positive cells % were fit against the concentration of the compound using a 4 parameter log-logistic function, generating PAR chain EC50 values: […]

[6] = molecular target: T2, human PARG (Homo sapiens, UniProt Q86W56, A967T/C963S/D927K/H446G/I916T/L447S/L473S/M841I/N479S/R811K/S802A/S858P/T924D); experiment: PARG enzymatic IC50 assay; type: biochemical; details: 2 hours incubation with enzyme; substrate ADP-ribose-pNP; absorbance 405 nm; read-out: IC50 determined in PARG enzymatic assay (PARG protein and 2 hours incubation)
T2 construct: human PARG (448-976 [H446G, L447S, L473S, N479S, S802A, R811K, M8411, S858P, 1916T, T924D, D927K, C963S, A967T]); 6His-TwinStrep (protease-cleavable) (N, cleaved yes); host or cells: E. coli BL21 (DE3)
T2 sequence (Q86W56 446-976 H446G/L447S/L473S/N479S/S802A/R811K/M841I/S858P/I916T/T924D/D927K/C963S/A967T): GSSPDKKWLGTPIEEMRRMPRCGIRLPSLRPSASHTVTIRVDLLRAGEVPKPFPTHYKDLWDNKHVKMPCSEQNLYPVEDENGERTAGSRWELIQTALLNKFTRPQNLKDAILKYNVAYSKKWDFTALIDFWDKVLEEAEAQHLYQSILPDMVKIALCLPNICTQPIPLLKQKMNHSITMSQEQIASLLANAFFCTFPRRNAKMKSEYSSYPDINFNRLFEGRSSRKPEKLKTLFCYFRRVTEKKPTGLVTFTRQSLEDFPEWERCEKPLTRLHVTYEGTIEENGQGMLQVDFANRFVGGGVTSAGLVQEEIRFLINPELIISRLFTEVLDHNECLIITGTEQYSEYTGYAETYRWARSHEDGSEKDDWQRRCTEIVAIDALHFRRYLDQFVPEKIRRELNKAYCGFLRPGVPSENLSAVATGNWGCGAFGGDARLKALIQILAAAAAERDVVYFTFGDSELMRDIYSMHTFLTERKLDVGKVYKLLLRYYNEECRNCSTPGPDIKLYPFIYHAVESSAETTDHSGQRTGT
Description: A codon optimized gene encoding human PARG (448-976 [H446G, L447S, L473S, N479S, S802A, R811K, M8411, S858P, 1916T, T924D, D927K, C963S, A967T]) was synthesized by Genscript, and cloned into pET15b (NcoI/BamHI) with an N-terminal, Thrombin protease cleavable 6His-TwinStrep tag. Expression of the protein in E. coli BL21 (DE3) was induced by addition of 0.2 mM IPTG to a shake flask culture grown to OD600=0.8 at 37° C. Growth was allowed to continue at 30° C. for a further 20 hours before harvesting by centrifugation and storage of the cell pellet at −80° C. […]
PARG enzyme as incubated with compound or vehicle (DMSO) for 15 minutes or 2 hours in a 384 well plate. After adding the PARG substrate ADP-ribose-pNP, the plate was read for absorbance intensity at 405 nm. The vehicle (DMSO) with high absorbance intensity represents no inhibition of enzymatic reaction while the low control (no enzyme) with low absorbance intensity represents full inhibition of enzymatic reaction. […]
The protocol that was used for enzyme reaction and detection is as follows: • 1. […] Read the plate on a plate reader (e.g., Spark Tecan).

[7] = tested on: NCI-H460; experiment: Cellular viability assay (NCI-H460); type: cell-based; details: 96 hours incubation, Cell Titer-Glo, read-out: EC50 determined in NCIH-460 cells, Cellular viability assay
Description: as §1

| pEC50 [1] | solubility kinetic at 24 h [2] [µM] | pEC50 [4] | pEC50 ([5]; with treatment of TMZ, read-out: EC50 determined in Cellular PAR chain assay (conditions with treatment of TMZ)) | pEC50 ([5]; without treatment of TMZ, read-out: EC50 determined in Cellular PAR chain assay (conditions without treatment of TMZ)) | pIC50 [6] | pEC50 ([7]; Homo sapiens, NCI-H460, 96 h) | pEC50 ([7]; listed as 1b fraction B) | Structure (SMILES) | Tumor volume on day 28 ([3]; 100 mg/kg PO QD x 28 days, Mean ± SEM) [mm^3] | TGI ([3]; 100 mg/kg PO QD x 28 days, day 28) [%] | anti-tumor response ([3]; 100 mg/kg, MDA-MB-436 xenograft) |
| --- | --- | --- | --- | --- | --- | --- | --- | --- | --- | --- | --- |
| 7.77 | 152 | 4.92 | > 8.52 | > 8.52 | 7.96 | > 7.72 | – | C[C@H]1CN(c2cc(S(=O)(=O)NC3(C)CC3)cn3c(-c4nnc(C(F)F)s4)ncc23)C[C@H](C)N1 [Example 1, 3-(5-(difluoromethyl)-1,3,4-thiadiazol-2-yl)-8-((3S,5S)-3,5-dimethylpiperazin-1-yl)-N-(1-methylcyclopropyl)imidazo[1,5-a]pyridine-6-sulfonamide formate] | 27 ± 9 | 118.20 | tumor regression seen in all mice |
| – | – | < 5.70 | – | – | – | 7.68 | 7.66 | C[C@H]1CN(c2cc(S(=O)(=O)NC3(C)CC3)cn3c(-c4nnc(C(F)F)s4)ncc23)C[C@H](C)N1 (single isomer, unassigned) [Example 1b] | – | – | – |
